From ChEMBL document CHEMBL5390260 (J Med Chem, 2023)
The source made the active and inactive calls. The rule behind the calls is not given here.

Legend:
MCF7 = assay: Antiproliferative activity against human MCF7 cells assessed as inhibition of cell growth measured after 48 hrs by sulforhodamine B assay; assay type: functional, cell-based; details: MCF7, 48 h
Carbonic anhydrase 9 = Carbonic anhydrase 9 (Homo sapiens, UniProt Q16790)
OVCAR-8 = assay: Antiproliferative activity against human OVCAR-8 cells assessed as inhibition of cell growth measured after 48 hrs by sulforhodamine B assay; assay type: functional, cell-based; details: OVCAR-8, 48 h
NCI/ADR-RES = assay: Antiproliferative activity against human NCI/ADR-RES cells assessed as inhibition of cell growth measured after 48 hrs by sulforhodamine B assay; assay type: functional, cell-based
Carbonic anhydrase 2 = Carbonic anhydrase 2 (Homo sapiens, UniProt P00918); assay: Binding affinity to human recombinant CA2 assessed as inhibition constant incubated for 15 mins by phenol red dye based stopped flow CO2 hydration assay
Tubulin (Homo sapiens) = Tubulin (Homo sapiens) (UniProt P68371+Q9H4B7+P0DPH7+P68366+Q13509+Q71U36+P04350+Q3ZCM7+P07437+P68363+Q9BQE3+Q6PEY2+Q13885+Q9BVA1+Q9BUF5); assay: Inhibition of tubulin polymerization (unknown origin) at 20 uM preincubated for 15 mins followed by GTP addition by spectrophotometric analysis; assay type: protein-complex assay
Carbonic anhydrase 12 = Carbonic anhydrase 12 (Homo sapiens, UniProt O43570); assay: Binding affinity to human recombinant CA12 assessed as inhibition constant incubated for 15 mins by phenol red dye based stopped flow CO2 hydration assay
HCT-116 [1] = assay: Induction of apoptosis in human HCT-116 cells assessed as increase in cleaved caspase-3 level upto 30 uM measured after 72 hrs by Western blotting analysis; assay type: functional, cell-based
MDCK [2] = assay: Cytotoxicity against MDCK cells assessed as reduction in cell viability at 1 to 100 nM incubated for 72 hrs by WST-1 assay; assay type: toxicity, cell-based, Canis lupus familiaris; details: dog, 0.1 µM, dose 1-100 nM
HT-29 [3] = assay: Cytotoxicity against doxorubicin-sensitive human HT-29 cell assessed as reduction in cell viability at 1 to 100 nM incubated for 72 hrs in presence of doxorubicin by WST-1 assay; assay type: functional, cell-based; details: dose 1-100 nM
HT-29 [4] = assay: Cytotoxicity against doxorubicin-sensitive human HT-29 cell assessed as reduction in cell viability at 1 to 100 nM incubated for 72 hrs by WST-1 assay; assay type: functional; details: dose 1-100 nM
MDCK-P-gp [5] = assay: Inhibition of P-gp in MDCK-P-gp cells assessed as effect on intracellular doxorubicin accumulation at 1 to 100 nM incubated for 72 hrs in presence of doxorubicin by […] assay; assay type: cell-based; details: Canis lupus familiaris, dose 1-100 nM
[6] = biological target: T1, ATP-dependent translocase ABCB1 (Homo sapiens, UniProt P08183); assay: Inhibition of P-gp in doxorubicin-resistant human HT-29 cell assessed as increase in intracellular doxorubicin accumulation incubated for 72 hrs in presence of doxorubicin by spectrofluorimetric analysis; assay type: cell-based; details: 0.1 µM, dose 100 nM
[7] = biological target: T1, ATP-dependent translocase ABCB1; assay: Inhibition of P-gp ATPase activity in doxorubicin-resistant human HT-29 cell assessed as reduction in rate of ATP hydrolysis at 10 nM incubated for 3 hrs by spectrophotometric analysis; assay type: cell-based; details: 0.01 µM
SW480 [8] = assay: Antiproliferative activity against human SW480 cells assessed as inhibition of cell growth measured after 48 to 72 hrs in presence of 5-fluorouracil by XTT assay; assay type: functional, cell-based
[9] = Cytotoxicity against MDCK-P-gp cells assessed as reduction in cell viability at 1 to 100 nM incubated for 72 hrs by WST-1 assay; assay type: toxicity, cell-based, Canis lupus familiaris; details: dog, 0.1 µM, dose 1-100 nM
MDCK-P-gp [10] = assay: Inhibition of P-gp ATPase activity in MDCK-P-gp cells assessed as reduction in rate of ATP hydrolysis at 10 nM incubated for 3 hrs by spectrophotometric analysis; assay type: cell-based; details: Canis lupus familiaris
MDA-MB-231 = assay: Antiproliferative activity against human MDA-MB-231 cells assessed as inhibition of cell growth at 0.1 to 30 uM measured after 72 hrs by propidium iodide staining based cytofluorimetric analysis; assay type: functional; details: dose 0.1-30 µM
SW480 [11] = assay: Antiproliferative activity against human SW480 cells assessed as inhibition of cell growth measured after 48 to 72 hrs by XTT assay; assay type: functional, cell-based
BT-549 = assay: Antiproliferative activity against human BT-549 cells assessed as inhibition of cell growth at 0.1 to 30 uM measured after 72 hrs by propidium iodide staining based cytofluorimetric analysis; assay type: functional; details: dose 0.1-30 µM
HCT-116 [12] = assay: Inhibition of Wnt/beta-catenin signalling pathway in LiCl stimulated human HCT-116 cells assessed as reduction in beta-catenin level upto 30 uM incubated for 24 hrs by Western blotting analysis; assay type: cell-based
MDCK [13] = assay: Cytotoxicity against MDCK cells assessed as reduction in cell viability at 1 to 100 nM incubated for 72 hrs in presence of doxorubicin by WST-1 assay; assay type: toxicity, cell-based, Canis lupus familiaris; details: dog, 0.1 µM, dose 1-100 nM
HT-29 [14] = assay: Cytotoxicity against doxorubicin-resistant human HT-29 cell assessed as reduction in cell viability […] incubated for 72 hrs in presence of doxorubicin by WST-1 assay; assay type: functional, cell-based
HCT-116 [15] = assay: Antiproliferative activity against human HCT-116 cells assessed as inhibition of cell growth measured after 48 to 72 hrs by MTT assay; assay type: functional, cell-based
HCT-116 [16] = assay: Inhibition of Wnt/beta-catenin signalling pathway in LiCl stimulated human HCT-116 cells assessed as reduction in […] gene expression upto 30 uM incubated for 24 hrs by RT-PCR analysis; assay type: cell-based
HEK293T [17] = assay: Inhibition of Wnt/beta-catenin signalling pathway in LiCl stimulated HEK293T cells transfected with renilla luciferase and TOPFlash reporter gene incubated for 24 hrs by luminescence based analysis; assay type: cell-based; details: Homo sapiens, dose <= 30.0 µM
HCT-116 [18] = assay: Induction of apoptosis in human HCT-116 cells assessed as increase in cleaved PARP level upto 30 uM measured after 72 hrs by Western blotting analysis; assay type: functional, cell-based
HT-29 [19] = assay: Cytotoxicity against doxorubicin-resistant human HT-29 cell assessed as reduction in cell viability at 1 to 100 nM incubated for 72 hrs by WST-1 assay; assay type: functional; details: dose 1-100 nM
HCT-116 [20] = assay: Inhibition of Wnt/beta-catenin signalling pathway in LiCl stimulated human HCT-116 cells assessed as reduction in Sal4 gene expression upto 30 uM incubated for 24 hrs by RT-PCR analysis; assay type: cell-based
T-cell [21] = assay: Induction of apoptosis in human T-lymphocyte assessed as increase in cell death at 30 uM measured after 72 hrs by Annexin-V/propidium iodide staining based flow cytometric analysis relative to control; assay type: toxicity
[22] = biological target: T1, ATP-dependent translocase ABCB1; assay: Inhibition of P-gp in human HT-29 cells assessed as effect on intracellular doxorubicin accumulation at 1 to 100 nM incubated for 72 hrs in presence of doxorubicin by spectrofluorimetric analysis; assay type: cell-based; details: dose 1-100 nM
HEK293T [23] = assay: Inhibition of Wnt/beta-catenin signalling pathway in LiCl stimulated HEK293T cells transfected with renilla luciferase and FOPFlash reporter gene upto 30 uM incubated for 24 hrs by luminescence based analysis; assay type: cell-based; details: Homo sapiens
T-cell [24] = assay: Induction of apoptosis in human T-lymphocyte assessed as late apoptotic cells at 30 uM measured after 72 hrs by Annexin-V/propidium iodide staining based flow cytometric analysis (reference value: 14%); assay type: toxicity
SW-620 [25] = assay: Antiproliferative activity against human SW620 cells assessed as inhibition of cell growth measured after 48 to 72 hrs by XTT assay; assay type: functional, cell-based
HCT-116 [26] = assay: Antiproliferative activity against human HCT-116 cells assessed as inhibition of cell growth measured after 48 to 72 hrs in presence of 5-fluorouracil by MTT assay; assay type: functional, cell-based
HT-29 [27] = assay: Cytotoxicity against doxorubicin-resistant human HT-29 cell assessed as reduction in cell viability incubated for 72 hrs in presence of doxorubicin by WST-1 assay; assay type: functional, cell-based; details: dose 1-100 nM
HCT-116 [28] = assay: Inhibition of Wnt/beta-catenin signalling pathway in LiCl stimulated human HCT-116 cells assessed as reduction in c-MYC level upto 30 uM incubated for 24 hrs by Western blotting analysis; assay type: cell-based
[29] = Cytotoxicity against MDCK-P-gp cells assessed as reduction in cell viability incubated for 72 hrs in presence of doxorubicin by WST-1 assay; assay type: toxicity, cell-based, Canis lupus familiaris; details: dog, dose 1-100 nM
SW-620 [30] = assay: Antiproliferative activity against human SW620 cells assessed as inhibition of cell growth measured after 48 to 72 hrs in presence of 5-fluorouracil by XTT assay; assay type: functional, cell-based

T1 sequence (P08183 whole entry): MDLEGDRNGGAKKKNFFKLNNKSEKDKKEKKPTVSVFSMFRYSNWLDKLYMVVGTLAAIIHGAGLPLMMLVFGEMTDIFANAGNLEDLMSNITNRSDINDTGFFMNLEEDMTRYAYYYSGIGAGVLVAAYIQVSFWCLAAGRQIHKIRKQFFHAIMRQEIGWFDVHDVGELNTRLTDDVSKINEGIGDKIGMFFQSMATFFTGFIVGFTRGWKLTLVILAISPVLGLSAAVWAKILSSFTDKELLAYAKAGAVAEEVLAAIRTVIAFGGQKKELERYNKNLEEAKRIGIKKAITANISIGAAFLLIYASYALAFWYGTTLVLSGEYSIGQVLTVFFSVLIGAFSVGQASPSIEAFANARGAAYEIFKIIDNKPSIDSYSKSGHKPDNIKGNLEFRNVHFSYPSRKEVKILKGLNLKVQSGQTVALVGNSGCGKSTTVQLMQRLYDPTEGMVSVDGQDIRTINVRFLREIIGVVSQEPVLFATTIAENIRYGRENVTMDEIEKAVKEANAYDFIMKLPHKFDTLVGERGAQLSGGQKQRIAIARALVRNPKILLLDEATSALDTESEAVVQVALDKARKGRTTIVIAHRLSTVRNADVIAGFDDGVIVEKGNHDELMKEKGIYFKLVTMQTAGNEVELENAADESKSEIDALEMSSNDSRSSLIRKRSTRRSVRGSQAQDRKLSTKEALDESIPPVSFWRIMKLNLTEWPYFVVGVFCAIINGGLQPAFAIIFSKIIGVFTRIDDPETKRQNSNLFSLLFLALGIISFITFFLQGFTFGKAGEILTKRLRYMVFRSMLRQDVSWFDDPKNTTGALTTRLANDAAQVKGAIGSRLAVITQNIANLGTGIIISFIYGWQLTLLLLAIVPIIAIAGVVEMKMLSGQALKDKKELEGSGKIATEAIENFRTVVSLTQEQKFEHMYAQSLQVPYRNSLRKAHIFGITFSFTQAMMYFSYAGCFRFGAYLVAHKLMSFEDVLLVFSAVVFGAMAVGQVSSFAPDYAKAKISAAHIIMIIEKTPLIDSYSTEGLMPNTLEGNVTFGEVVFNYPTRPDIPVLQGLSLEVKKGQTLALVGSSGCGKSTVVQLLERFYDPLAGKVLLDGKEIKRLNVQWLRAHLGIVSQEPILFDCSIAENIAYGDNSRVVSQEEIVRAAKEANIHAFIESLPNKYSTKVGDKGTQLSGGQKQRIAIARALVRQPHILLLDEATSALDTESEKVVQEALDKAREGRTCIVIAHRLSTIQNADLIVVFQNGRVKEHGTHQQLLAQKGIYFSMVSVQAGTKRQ
Carbonic anhydrase 12, sequence (O43570 whole entry): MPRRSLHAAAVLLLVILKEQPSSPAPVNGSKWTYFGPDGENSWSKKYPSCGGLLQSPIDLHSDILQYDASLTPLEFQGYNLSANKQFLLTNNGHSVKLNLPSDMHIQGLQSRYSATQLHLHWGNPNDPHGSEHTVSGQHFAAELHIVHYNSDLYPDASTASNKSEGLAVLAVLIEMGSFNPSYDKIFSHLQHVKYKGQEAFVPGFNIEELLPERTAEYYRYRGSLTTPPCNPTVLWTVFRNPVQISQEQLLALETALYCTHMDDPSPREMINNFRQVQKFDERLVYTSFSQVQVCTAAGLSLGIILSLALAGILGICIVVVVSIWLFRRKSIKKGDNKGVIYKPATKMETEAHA

COc1cc(C(=O)c2ccn(-c3ccc(S(N)(=O)=O)cc3)c2)cc(OC)c1OC showed an IC50 (MCF7) of 3900 nM, a Ki (Carbonic anhydrase 9) of 44.8 nM and an IC50 (OVCAR-8) of 1900 nM. For the same molecule, the IC50 (NCI/ADR-RES) was 2200 nM, the Ki (Carbonic anhydrase 2) was 10.2 nM and the inhibition (Tubulin (Homo sapiens)) was “inactive”. The Ki (Carbonic anhydrase 12) was 11.5 nM.

Molecule NS(=O)(=O)c1ccc(-n2cc(C(=O)c3ccccc3)c3ccccc32)cc1 has a Ki (Carbonic anhydrase 9) of 31.6 nM and a Ki (Carbonic anhydrase 12) of 52 nM.

Molecule Nc1ccc(C(=O)c2ccc(-c3ccc(S(N)(=O)=O)cc3)cc2)cc1 has an EC50 (NCI/ADR-RES) of 2100 nM.

NS(=O)(=O)c1ccc(-n2cc(C(=O)c3ccccc3)c(-c3ccccc3)c2)cc1 gave a Ki (Carbonic anhydrase 9) of 38.6 nM and a Ki (Carbonic anhydrase 12) of 59.4 nM.

With COc1cc(C(=O)c2cn(-c3ccc(S(N)(=O)=O)cc3)cc2-c2ccccc2)cc(OC)c1OC the Activity (HCT-116 [1]) was “Active”, the Activity (MDCK [2]) was over 75% and the IC50 (MCF7) was 1900 nM. The Activity (HT-29 [3]) was “Active”, the Activity (HT-29 [4]) was over 75% and the inhibition (MDCK-P-gp [5]) was “inactive”. The “inhibition (INH)” value [6] was “Dose-Dependent Effect”, the “inhibition (INH)” value [7] was “Active” and the IC50 (SW480 [8]) was 42900 nM. The Activity [9] was over 75%, the inhibition (MDCK-P-gp [10]) was “Active” and the Activity (MDA-MB-231) was “Active”. The IC50 (OVCAR-8) was 1900 nM, the IC50 (SW480 [11]) was 17700 nM and the Activity (BT-549) was “Active”. The IC50 (NCI/ADR-RES) was 2100 nM, the inhibition (HCT-116 [12]) was “Active” and the Activity (MDCK [13]) was “Non-Toxic”. The Activity (HT-29 [14]) was “Active”, the IC50 (HCT-116 [15]) was 8700 nM and the inhibition (HCT-116 [16]) was “Active”. The inhibition (HEK293T [17]) was “Dose-Dependent Effect”, the Activity (HCT-116 [18]) was “Active” and the Activity (HT-29 [19]) was over 75%. The inhibition (HCT-116 [20]) was “Active”, the Activity (T-cell [21]) was 6% and the “inhibition (INH)” value [22] was “Not Active”. For the same molecule, the inhibition (HEK293T [23]) was “inactive”, the Activity (T-cell [24]) was 20% and the IC50 (SW-620 [25]) was 23800 nM. For the same molecule, the IC50 (HCT-116 [26]) was 17000 nM, the Activity (HT-29 [27]) was “Dose-Dependent Effect” and the inhibition (HCT-116 [28]) was “Active”. For the same molecule, the Activity [29] was “Dose-Dependent Effect” and the IC50 (SW-620 [30]) was 37300 nM.

For NS(=O)(=O)c1ccc(-n2ccc(C(=O)c3ccccc3)c2)cc1, the Ki (Carbonic anhydrase 9) was 66 nM and the Ki (Carbonic anhydrase 12) was 47.1 nM.

Work on COc1cc(C(=O)c2cn(-c3ccc(S(N)(=O)=O)cc3)c3ccccc23)cc(OC)c1OC yielded an IC50 (SW480 [8]) of 50300 nM, an IC50 (HCT-116 [26]) of 14000 nM and an IC50 (SW-620 [30]) of 25800 nM.

With COc1cccc2c1C(=O)c1c(O)c3c(c(O)c1C2=O)C[C@@](O)(C(=O)CO)C[C@@H]3O[C@H]1C[C@H](N)[C@H](O)[C@H](C)O1 [DOXORUBICIN] the Activity (MDCK [2]) was “Toxic”, the Activity (HT-29 [4]) was “Active” and the Activity [9] was “Non-Toxic”. The Activity (HT-29 [19]) was “inactive”.
